The text below walks through data of US12479847B2 (DANA-FARBER CANCER INSTITUTE, INC., priority 2019, dated 2025).

Holding throughout (assay): KINOMEscan (ScanMAX) kinase profiling
What all share (format): binding

The target in assay [1] is T1, panel of 468 kinases (Homo sapiens, UniProt O96013).
T1 construct: purchased KINOMEscan (ScanMAX) service
Particulars: PAK4; 1 μM; read-out: % control.

For assay [2], the target named is T2, panel of 468 kinases (Homo sapiens, UniProt P07949, M918T).
T2 construct: purchased KINOMEscan (ScanMAX) service
Particulars: RET(M918T); 1 μM; read-out: % control.

Assay [3] deals with T3, panel of 468 kinases (Homo sapiens, UniProt P43405).
T3 construct: purchased KINOMEscan (ScanMAX) service
Particulars: SYK; 1 μM; read-out: % control.

Assay [4] deals with T4, panel of 468 kinases (Homo sapiens, UniProt P49760).
T4 construct: purchased KINOMEscan (ScanMAX) service
The note with it: CLK2; 1 μM; read-out: % control.

Assay [5] concerns the target T5, panel of 468 kinases (Homo sapiens, UniProt Q00535).
T5 construct: purchased KINOMEscan (ScanMAX) service
Particulars: CDK5; 1 μM; read-out: % control.

The target in assay [6] is T6, panel of 468 kinases (Homo sapiens, UniProt Q15835).
T6 construct: purchased KINOMEscan (ScanMAX) service
T6 sequence (Q15835 1-563): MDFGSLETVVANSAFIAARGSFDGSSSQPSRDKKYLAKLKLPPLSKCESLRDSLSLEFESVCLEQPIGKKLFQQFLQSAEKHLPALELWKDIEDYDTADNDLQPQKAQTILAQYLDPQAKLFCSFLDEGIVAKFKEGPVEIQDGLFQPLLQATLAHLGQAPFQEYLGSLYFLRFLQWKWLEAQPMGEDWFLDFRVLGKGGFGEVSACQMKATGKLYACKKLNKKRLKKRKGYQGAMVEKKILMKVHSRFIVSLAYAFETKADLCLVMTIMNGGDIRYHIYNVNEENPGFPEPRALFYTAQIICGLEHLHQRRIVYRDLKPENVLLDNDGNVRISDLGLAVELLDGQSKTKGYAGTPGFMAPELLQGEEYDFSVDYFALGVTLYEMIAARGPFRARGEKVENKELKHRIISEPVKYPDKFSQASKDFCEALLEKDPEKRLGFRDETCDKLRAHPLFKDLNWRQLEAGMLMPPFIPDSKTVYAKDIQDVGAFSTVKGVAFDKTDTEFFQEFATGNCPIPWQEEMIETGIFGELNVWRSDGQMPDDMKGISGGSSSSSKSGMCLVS
The note with it: GRK1; 1 μM; read-out: % control.

The target in assay [7] is T7, panel of 468 kinases (Homo sapiens, UniProt Q8NI60).
T7 construct: purchased KINOMEscan (ScanMAX) service
Particulars: ADCK3; 1 μM; read-out: % control.

In assay [8] the target is T8, panel of 468 kinases (Homo sapiens, UniProt Q9UHD2).
T8 construct: purchased KINOMEscan (ScanMAX) service
T8 sequence (Q9UHD2 1-729): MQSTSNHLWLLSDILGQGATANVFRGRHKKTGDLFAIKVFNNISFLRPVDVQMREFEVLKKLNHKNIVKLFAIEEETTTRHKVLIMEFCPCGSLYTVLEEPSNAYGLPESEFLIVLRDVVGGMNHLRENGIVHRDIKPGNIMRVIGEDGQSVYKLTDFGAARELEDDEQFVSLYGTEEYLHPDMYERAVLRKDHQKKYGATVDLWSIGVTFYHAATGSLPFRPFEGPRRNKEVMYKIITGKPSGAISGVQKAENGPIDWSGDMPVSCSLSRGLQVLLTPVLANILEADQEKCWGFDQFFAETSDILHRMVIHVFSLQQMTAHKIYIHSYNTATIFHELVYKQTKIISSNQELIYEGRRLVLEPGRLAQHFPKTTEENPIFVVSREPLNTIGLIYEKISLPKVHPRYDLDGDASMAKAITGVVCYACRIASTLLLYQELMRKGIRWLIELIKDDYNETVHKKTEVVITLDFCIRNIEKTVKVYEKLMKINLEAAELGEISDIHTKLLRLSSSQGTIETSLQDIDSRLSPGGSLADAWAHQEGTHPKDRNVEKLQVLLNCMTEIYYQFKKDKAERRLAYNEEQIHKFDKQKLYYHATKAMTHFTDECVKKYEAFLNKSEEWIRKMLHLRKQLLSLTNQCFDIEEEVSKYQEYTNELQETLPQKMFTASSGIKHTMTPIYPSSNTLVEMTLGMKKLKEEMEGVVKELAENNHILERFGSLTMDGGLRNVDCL
Particulars: TBK1; 1 μM; read-out: % control.

T5 sequence (Q00535 whole entry): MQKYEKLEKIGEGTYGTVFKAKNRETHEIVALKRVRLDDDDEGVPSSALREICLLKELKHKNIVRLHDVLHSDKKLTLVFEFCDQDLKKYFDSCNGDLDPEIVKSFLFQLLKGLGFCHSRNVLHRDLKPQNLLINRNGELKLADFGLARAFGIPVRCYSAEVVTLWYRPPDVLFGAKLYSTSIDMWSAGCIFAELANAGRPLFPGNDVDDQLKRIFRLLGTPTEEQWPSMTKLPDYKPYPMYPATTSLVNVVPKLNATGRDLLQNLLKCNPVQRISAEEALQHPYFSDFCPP
T2 sequence (P07949 29-1114 M918T): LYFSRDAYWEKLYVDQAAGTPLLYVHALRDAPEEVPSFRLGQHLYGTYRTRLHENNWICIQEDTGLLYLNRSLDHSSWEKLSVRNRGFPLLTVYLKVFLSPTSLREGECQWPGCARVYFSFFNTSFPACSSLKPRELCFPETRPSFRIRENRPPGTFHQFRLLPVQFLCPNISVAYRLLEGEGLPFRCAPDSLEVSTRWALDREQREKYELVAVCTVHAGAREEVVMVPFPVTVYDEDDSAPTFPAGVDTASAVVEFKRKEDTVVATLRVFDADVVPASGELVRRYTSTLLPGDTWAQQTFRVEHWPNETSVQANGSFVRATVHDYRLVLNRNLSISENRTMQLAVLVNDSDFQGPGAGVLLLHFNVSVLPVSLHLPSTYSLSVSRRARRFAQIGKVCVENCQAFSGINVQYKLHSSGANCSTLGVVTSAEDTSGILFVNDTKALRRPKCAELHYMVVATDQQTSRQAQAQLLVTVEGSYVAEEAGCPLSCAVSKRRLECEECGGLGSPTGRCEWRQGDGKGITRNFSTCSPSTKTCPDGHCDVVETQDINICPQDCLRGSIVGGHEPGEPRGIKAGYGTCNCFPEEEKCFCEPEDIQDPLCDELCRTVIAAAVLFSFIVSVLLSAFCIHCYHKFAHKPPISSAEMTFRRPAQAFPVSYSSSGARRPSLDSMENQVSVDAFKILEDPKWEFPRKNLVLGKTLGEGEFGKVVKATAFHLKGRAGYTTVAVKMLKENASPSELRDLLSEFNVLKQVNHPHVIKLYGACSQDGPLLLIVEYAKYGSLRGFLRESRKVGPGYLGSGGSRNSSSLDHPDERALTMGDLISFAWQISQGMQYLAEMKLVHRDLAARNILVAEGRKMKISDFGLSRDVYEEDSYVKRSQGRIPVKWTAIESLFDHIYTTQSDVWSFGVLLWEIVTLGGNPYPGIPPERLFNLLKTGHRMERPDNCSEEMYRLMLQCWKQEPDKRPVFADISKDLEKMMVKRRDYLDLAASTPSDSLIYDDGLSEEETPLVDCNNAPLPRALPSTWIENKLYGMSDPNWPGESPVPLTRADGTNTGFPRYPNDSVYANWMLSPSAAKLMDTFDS
T7 sequence (Q8NI60 163-647): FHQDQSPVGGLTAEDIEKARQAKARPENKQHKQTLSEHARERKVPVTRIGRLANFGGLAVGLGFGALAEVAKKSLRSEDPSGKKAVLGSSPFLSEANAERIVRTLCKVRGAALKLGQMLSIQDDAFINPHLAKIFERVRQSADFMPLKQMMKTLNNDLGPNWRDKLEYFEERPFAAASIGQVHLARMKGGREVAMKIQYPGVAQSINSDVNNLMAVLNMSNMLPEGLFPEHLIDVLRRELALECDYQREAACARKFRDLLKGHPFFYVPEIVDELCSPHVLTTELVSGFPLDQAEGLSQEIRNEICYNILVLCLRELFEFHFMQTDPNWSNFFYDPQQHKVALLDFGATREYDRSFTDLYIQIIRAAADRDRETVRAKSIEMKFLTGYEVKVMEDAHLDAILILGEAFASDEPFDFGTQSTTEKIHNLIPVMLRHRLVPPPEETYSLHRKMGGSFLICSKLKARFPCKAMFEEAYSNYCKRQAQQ
T1 sequence (O96013 whole entry): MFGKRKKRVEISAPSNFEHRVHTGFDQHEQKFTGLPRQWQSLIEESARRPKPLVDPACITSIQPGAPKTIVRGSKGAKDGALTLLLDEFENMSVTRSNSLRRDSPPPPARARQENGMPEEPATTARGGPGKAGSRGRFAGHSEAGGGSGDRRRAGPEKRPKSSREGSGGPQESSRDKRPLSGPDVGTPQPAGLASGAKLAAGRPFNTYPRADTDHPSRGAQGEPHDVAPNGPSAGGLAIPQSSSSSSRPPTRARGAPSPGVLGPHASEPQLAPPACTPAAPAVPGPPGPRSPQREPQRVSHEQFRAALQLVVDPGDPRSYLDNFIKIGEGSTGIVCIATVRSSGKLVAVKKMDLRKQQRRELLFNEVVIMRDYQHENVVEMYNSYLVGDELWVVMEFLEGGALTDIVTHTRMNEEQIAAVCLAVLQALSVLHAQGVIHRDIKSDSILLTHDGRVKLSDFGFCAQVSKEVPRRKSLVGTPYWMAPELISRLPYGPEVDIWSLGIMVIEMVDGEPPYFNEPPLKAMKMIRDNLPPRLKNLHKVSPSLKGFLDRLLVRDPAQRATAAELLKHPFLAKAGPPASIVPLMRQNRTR
T4 sequence (P49760 whole entry): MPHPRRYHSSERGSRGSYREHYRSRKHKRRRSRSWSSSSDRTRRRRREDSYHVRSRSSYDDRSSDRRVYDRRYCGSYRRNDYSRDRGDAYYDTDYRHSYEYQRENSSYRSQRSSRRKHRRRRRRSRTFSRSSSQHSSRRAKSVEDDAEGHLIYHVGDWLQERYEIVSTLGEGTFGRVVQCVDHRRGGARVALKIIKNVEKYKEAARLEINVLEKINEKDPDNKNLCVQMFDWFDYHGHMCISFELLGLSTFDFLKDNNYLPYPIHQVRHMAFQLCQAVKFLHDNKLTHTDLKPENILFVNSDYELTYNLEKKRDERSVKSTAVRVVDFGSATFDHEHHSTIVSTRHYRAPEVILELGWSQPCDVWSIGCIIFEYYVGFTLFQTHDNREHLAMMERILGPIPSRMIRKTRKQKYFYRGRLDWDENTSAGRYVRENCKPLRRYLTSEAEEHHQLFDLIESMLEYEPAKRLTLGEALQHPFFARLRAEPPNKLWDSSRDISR

Turning to `CNc1nc(Nc2ccc(S(=O)(=O)N3CCC(N4CCOCC4)CC3)cc2OC)nc2[nH]cc(Cl)c12` [Compound 12, 5-chloro-N2-(2-methoxy-4-((4-morpholinopiperidin-1-yl)sulfonyl)phenyl)-N4-methyl-7H-pyrrolo[2,3-d]pyrimidine-2,4-diamine], the remaining binding at 1 µM on panel of 468 kinases [1] was 100%; at panel of 468 kinases [2], 100%; at panel of 468 kinases [3], 55%; on panel of 468 kinases [4], 55%; at panel of 468 kinases [5], 100%; at panel of 468 kinases [6], 79%. In addition, the remaining binding at 1 µM at panel of 468 kinases [7] worked out at 100%; on panel of 468 kinases [8] it was 95%.

With `CNc1nc(Nc2ccc(P3(=O)CCN(C4CCOCC4)CC3)cc2OC)nc2[nH]cc(Cl)c12` [Compound 77, 4-(4-((5-chloro-4-(methylamino)-7H-pyrrolo[2,3-d]pyrimidin-2-yl)amino)-3-methoxyphenyl)-1-(tetrahydro-2H-pyran-4-yl)-1,4-azaphosphinane 4-oxide], the remaining binding at 1 µM on panel of 468 kinases [1] came to 100%; on panel of 468 kinases [2], 94%; at panel of 468 kinases [3], 43%; on panel of 468 kinases [4], 28%; at panel of 468 kinases [5], 100%; on panel of 468 kinases [6], 88%. The remaining binding at 1 µM on panel of 468 kinases [7] was 100%; at panel of 468 kinases [8], 85%.

Regarding `CNc1nc(Nc2ccc(C(=O)N3CCC(N4CCOCC4)CC3)c3c2OCO3)nc2[nH]cc(Cl)c12` [Compound 75, (7-((5-chloro-4-(methylamino)-7H-pyrrolo[2,3-d]pyrimidin-2-yl)amino)benzo[d][1,3]dioxol-4-yl)(4-morpholinopiperidin-1-yl)methanone], the remaining binding at 1 µM on panel of 468 kinases [1] stood at 100%; at panel of 468 kinases [2], 90%; at panel of 468 kinases [3] it was 35%; at panel of 468 kinases [4], 21%; at panel of 468 kinases [5] it was 100%; at panel of 468 kinases [6] it was 88%. The remaining binding at 1 µM at panel of 468 kinases [7] amounted to 100%; on panel of 468 kinases [8] it was 34%.
